{"source": "paper PMC7127469", "about": "(European Journal of Medicinal Chemistry, 2010)", "assay_type_in_all_cases": "cell-based", "key": {"sindbis virus": {"system": "sindbis virus", "test": "microbe, parasite or virus in culture", "conditions": "Vero, virus k, Vero cells"}, "coxsackie virus B4": {"system": "coxsackie virus B4", "test": "microbe, parasite or virus in culture", "conditions": "Enterovirus B, B4, HeLa, coxsackie virus B4, HeLa cells"}, "punta toro virus": {"system": "punta toro virus", "test": "microbe, parasite or virus in culture", "conditions": "Vero, virus m, Vero cells"}, "coxsakie virus B4": {"system": "coxsakie virus B4", "test": "organism not typed", "conditions": "Vero"}, "reovirus-1": {"system": "reovirus-1", "test": "organism not typed", "conditions": "Vero, virus j, reovirus-1, Vero cells"}, "para-influenza-3 virus": {"system": "para-influenza-3 virus", "test": "organism not typed", "conditions": "Vero, virus i, Vero cells"}, "influenza A H1N1 subtype": {"system": "influenza A H1N1 subtype", "test": "Antiviral assay, inhibition of virus-induced cytopathic effect, MDCK cells"}, "influenza A H3N2 subtype": {"system": "influenza A H3N2 subtype", "test": "Antiviral assay, inhibition of virus-induced cytopathic effect, MDCK cells"}, "[1]": {"system": "herpes simplex virus-1(KOS)", "test": "microbe, parasite or virus in culture", "conditions": "Human alphaherpesvirus 1, HEL, virus d, HEL cells"}, "[2]": {"system": "herpes simplex virus-2 (G)", "test": "microbe, parasite or virus in culture", "conditions": "Human alphaherpesvirus 2, HEL, virus e, HEL cells"}, "vaccinia virus": {"system": "vaccinia virus", "test": "microbe, parasite or virus in culture", "conditions": "Orthopoxvirus vaccinia, HEL"}, "[3]": {"system": "Vesicular stomatitis virus", "test": "microbe, parasite or virus in culture", "conditions": "HEL"}, "feline herpes virus": {"system": "feline herpes virus", "test": "organism not typed", "conditions": "CRFK, virus o, CRFK cells"}, "influenza B": {"system": "influenza B", "test": "Antiviral assay, inhibition of virus-induced cytopathic effect, MDCK cells"}, "[4]": {"system": "Vesicular stomatitis virus", "test": "microbe, parasite or virus in culture", "conditions": "HeLa"}, "[5]": {"conditions": "virus p, influenza A H1N1 subtype, MDCK cells"}, "[6]": {"conditions": "virus q, influenza A H3N2 subtype, MDCK cells"}}, "data": [{"smiles": "Nc1ncnc2c1ncn2C[C@H](O)CO", "note": "[(S)-DHPA]", "values": [{"measurement": "EC50", "setting": "sindbis virus", "value": "> 250", "unit": "µM"}, {"measurement": "EC50", "setting": "coxsackie virus B4", "value": "> 250", "unit": "µM"}, {"measurement": "EC50", "setting": "punta toro virus", "value": "> 250", "unit": "µM"}, {"measurement": "EC50", "setting": "coxsakie virus B4", "value": "> 250", "unit": "µM"}, {"measurement": "EC50", "setting": "reovirus-1", "value": "> 250", "unit": "µM"}, {"measurement": "EC50", "setting": "para-influenza-3 virus", "value": "> 250", "unit": "µM"}]}, {"smiles": "NC12CC3CC(CC(C3)C1)C2", "note": "[Amantidin]", "values": [{"measurement": "EC50", "setting": "influenza A H1N1 subtype; [5]", "value": 45, "unit": "µM"}, {"measurement": "EC50", "setting": "influenza A H3N2 subtype; [6]", "value": 4, "unit": "µM"}]}, {"smiles": "O=c1[nH]c(=O)n([C@H]2C[C@H](O)[C@@H](CO)O2)cc1/C=C/Br", "note": "[Brivudine]", "values": [{"measurement": "EC50", "setting": "[1]", "value": 0.08, "unit": "µM"}, {"measurement": "EC50", "setting": "[2]", "value": 50, "unit": "µM"}, {"measurement": "EC50", "setting": "vaccinia virus", "value": 2, "unit": "µM"}, {"measurement": "EC50", "setting": "[3]", "value": "> 250", "unit": "µM"}]}, {"smiles": "Nc1nc(O)c2ncn(COC(CO)CO)c2n1", "note": "[Ganciclovir]", "values": [{"measurement": "EC50", "setting": "[1]", "value": 0.03, "unit": "µM"}, {"measurement": "EC50", "setting": "[2]", "value": 0.03, "unit": "µM"}, {"measurement": "EC50", "setting": "vaccinia virus", "value": "> 100", "unit": "µM"}, {"measurement": "EC50", "setting": "[3]", "value": "> 100", "unit": "µM"}, {"measurement": "EC50", "setting": "feline herpes virus", "value": 2.6, "unit": "µM"}]}, {"smiles": "CCC(CC)O[C@@H]1C=C(C(=O)O)C[C@H](N)[C@H]1NC(C)=O", "note": "[Oseltamivir-carboxylate]", "values": [{"measurement": "EC50", "setting": "influenza B", "value": 4, "unit": "µM"}, {"measurement": "EC50", "setting": "influenza A H1N1 subtype; Influenza A virus, H1N1, MDCK", "value": 0.07, "unit": "µM"}, {"measurement": "EC50", "setting": "influenza A H3N2 subtype; Influenza A virus, H3N2, MDCK", "value": 1.7, "unit": "µM"}]}, {"smiles": "NC(=O)c1ncn([C@@H]2O[C@H](CO)[C@@H](O)[C@H]2O)n1", "note": "[Ribavirin]", "values": [{"measurement": "EC50", "setting": "influenza B", "value": 9, "unit": "µM"}, {"measurement": "EC50", "setting": "coxsackie virus B4", "value": 30, "unit": "µM"}, {"measurement": "EC50", "setting": "[1]", "value": 10, "unit": "µM"}, {"measurement": "EC50", "setting": "[2]", "value": 50, "unit": "µM"}, {"measurement": "EC50", "setting": "[4]", "value": 10, "unit": "µM"}, {"measurement": "EC50", "setting": "influenza A H1N1 subtype; Influenza A virus, H1N1, MDCK", "value": 7, "unit": "µM"}, {"measurement": "EC50", "setting": "vaccinia virus", "value": 85, "unit": "µM"}, {"measurement": "EC50", "setting": "punta toro virus", "value": 50, "unit": "µM"}, {"measurement": "EC50", "setting": "coxsakie virus B4", "value": "> 250", "unit": "µM"}, {"measurement": "EC50", "setting": "[3]", "value": "> 250", "unit": "µM"}, {"measurement": "EC50", "setting": "reovirus-1", "value": 250, "unit": "µM"}, {"measurement": "EC50", "setting": "para-influenza-3 virus", "value": 95, "unit": "µM"}, {"measurement": "EC50", "setting": "influenza A H3N2 subtype; Influenza A virus, H3N2, MDCK", "value": 9, "unit": "µM"}]}, {"smiles": "CC(N)C12CC3CC(CC(C3)C1)C2", "note": "(centres unmarked) [Rimantidin]", "values": [{"measurement": "EC50", "setting": "influenza A H1N1 subtype; [5]", "value": 20, "unit": "µM"}, {"measurement": "EC50", "setting": "influenza A H3N2 subtype; [6]", "value": 0.8, "unit": "µM"}]}]}
